# Key:
# [1] = system: human breast cancer MCF-7 cells; test: Detachment and apoptotic nuclear changes in MCF-7 cells; assay type: cell-based; details: MCF-7, 24 h
# Protocol: (§1) c. Treatment of cells with MCP inhibitor. Cells were treated with a specified MCP Inhibitor, a standard anticancer agent (etoposide or cisplatin), or DMSO (vehicle). During this process, morphological changes and cellular detachment (for attached cell lines) were monitored. At each time point, cells were harvested, and used for measurement of apoptosis and other biochemical events. In Example 1, infra, involving YVAD-CMK, Compound A was first added to Jurkat T cells. This was followed immediately by dividing the cells into multiple tissue culture flasks. YVAD-CMK was then added to an indicated concentration.
# (§2) d. Flow cytometry nuclear staining and DNA fragmentation assays. DNA content analysis using flow cytometry was performed as described previously (Nicoletti, I., et al. J. Immunol. Methods 139:271-279, 1992). To assay nuclear morphology, cells were washed with PBS, fixed with 70% ethanol for 1 h, and stained with Hoechst 33258 (1 mM) for 30 min. The nuclear morphology of cells was visualized by fluorescence microscope (OLYMPUS BH2). DNA fragmentation was assayed as described previously (Grant, S., et al. Cancer Res. 52:6270-6278, 1992).
# (§3) Detachment was also found in at least half of human breast cancer MDA-MB-231 and MCF-7 cells, after exposure to Compound A for 24 h.
# [2] = system: osteosarcoma cell line U2OS; test: Detachment and apoptosis in U2OS cells; assay type: cell-based, human; details: U2OS (data not shown)
# Protocol: as §1, §2
# [3] = target: MCP chymotrypsin-like activity (Homo sapiens, UniProt P28074); test: Inhibition of MCP chymotrypsin-like activity; assay type: biochemical
# Source text: The rank-order potency for Jurkat cell killing precisely matched the order for MCP inhibition (Table 2, below).
# Inhibition of the chymotrypsin-like activity of MCP by the disclosed MCP inhibitors has been reported, but these MCP inhibitors produced relatively little inhibition on the MCP trypsin-like activity and cathepsin B, a vacuolar cysteine protease (Iqbal, M., et al. J. Med Chem. 38: 2276-2277, 1995; Iqbal, M., et al. Bioorg. Med. Chem. Lett. 6: 287-290, 1996; and Harding, C. V., et al. J. Immuno. 155: 1767-1775, 1995). Furthermore, the order of potency for inhibition of the chymotrypsin-like activity was reported to be Compound A>Compound B>Compound C by using both isolated MCP and intact murine B cells (Iqbal, M., et al. J. Med Chem. 38: 2276-2277, 1995; Iqbal, M., et al. Bioorg. Med. Chem. Lett. 6: 287-290, 1996; and Harding, C. V., et al. J. Immuno. 155: 1767-1775, 1995).
# [4] = system: p21 and p27 in SV-40 transformed WI-38 fibroblasts; test: Western blot of p21 and p27 levels in SV-40 transformed WI-38 fibroblasts; assay type: cell-based, human; details: SV-40 transformed WI-38, 10 μM, 22 hours
# Protocol: (§4) e. Whole cell extracts and western blot assay. To prepare whole cell extracts, cells were washed with PBS, and homogenized in lysis buffer (50 mM Tris, pH 8.0, 5 mM EDTA, 150 mM NaCl, 0.5% Nonidet P-40, 0.5 mM PMSF and 0.5 mM dithiothreitol). Following 30 min rocking at 4° C., the lysates were centrifuged and the supernatants were collected as whole cell extracts. The protein samples were then analyzed by sodium dodecyl sulfate-6% polyacrylamide gel electrophoresis (20-60 μg protein per lane) followed by the enhanced chemiluminescence Western blot assay using specific antibodies to CPP32, PARP, p21, p27 or RB.
# The accumulation of p21 and p27 following treatment with Compound A was also evaluated in SV-40 transformed and normal WI-38 fibroblasts.
# [5] = system: oral aquamous carcinoma cell line SCC-25; test: Detachment and apoptosis in SCC-25 cells; assay type: cell-based, human
# Protocol: as §1, §2
# [6] = system: Normal human fibroblast cell line (WI-38); test: Detachment, apoptotic nuclear changes and PARP cleavage in normal fibroblasts; assay type: cell-based
# Protocol: as §1, §2, §4
# Whether Compound A has, any selectivity in induction of apoptosis between transformed and normal cells was investigated. Normal human fibroblast cell line (WI-38) and its SV40-transformed derivative (WI-38 VA13) were utilized. […]
# human Jurkat T cells = test: Apoptosis in Jurkat T cells (flow cytometry sub-G1 DNA content, DNA fragmentation); assay type: cell-based; details: Jurkat T cells
# Protocol: as §1, §2
# Example 1 was designed to determine if MCP is involved in the survival signaling pathway(s) and if inhibition of MCP activity induces apoptosis. Human Jurkat T cells were treated with 30 μM Compound A for 4 h. […] Both the p112 and p115 forms of RB as p112-115/RB were combined and used as an apoptosis marker.
# When human Jurkat T cells were treated with 15 μM Compound A for 8 h, there was a 23% increase in the apoptotic population with sub-G1 DNA content (FIG. 2, panels b vs. a). By comparison, when Compound B was used, only an 8%-increase in sub-G1 population was detected (FIG. 2, panels c vs. a).
# [7] = system: p21 and p27 in human breast cancer MDA-MB-231 cells; test: Western blot of p21 and p27 levels in MDA-MB-231 cells; assay type: cell-based; details: MDA-MB-231, 15 μM, 6 hours
# Protocol: as §4
# Additionally, a band of 70 kDa whih may represent ubiquinated p70 was also observed. In contrast, etoposide caused only limited accumulation of p21 (≦4-fold) and p27 (≦2-fold) at 17 hours when used at concentrations up to 100 μM.
# [8] = system: human leukemia HL-60 cells; test: Apoptosis in HL-60 cells (DNA fragmentation, PARP cleavage); assay type: cell-based; details: 30 μM, 3-4 h
# Protocol: as §2, §4
# Example 1 was designed to determine if MCP is involved in the survival signaling pathway(s) and if inhibition of MCP activity induces apoptosis. Human Jurkat T cells were treated with 30 μM Compound A for 4 h. […]
# [9] = system: human breast cancer MDA-MB-231 cells; test: Detachment and apoptotic nuclear changes in MDA-MB-231 cells; assay type: cell-based; details: MDA-MB-231, 24 h
# Protocol: as §1, §2, §3
smiles,measurement,setting,value
CC(C)C[C@@H](C=O)NC(=O)[C@@H](CCCNC(=N)N[N+](=O)[O-])NC(=O)C(CCCCCCCCN1C(=O)c2ccccc2C1=O)C1CCCC1 (stereo partly drawn) [Compound A],Apoptosis by nuclear staining,[1],apoptotic morphology in all of the detached and most of the attached cells
same,Detached cells,[1],at least half
same,Induction of cellular detachment and apoptosis,[2],induced cellular detachment and apoptosis
same,IC50,[3],2 nM
same,Elevation of p27 levels,[4],8 fold
same,Induction of cellular detachment and apoptosis,[5],induced cellular detachment and apoptosis
same,Detachment and apoptotic nuclear changes,"[6]; normal WI-38, 10 μM, up to 22 h",did not induce either detachment or apoptotic nuclear morphology
same,PARP cleavage,"[6]; normal WI-38, total cell population",not in the normal
same,Increase in the apoptotic population with sub-G1 DNA content,"human Jurkat T cells; 15 μM, 8 h",23%
same,"Induction of apoptosis (sub-G1 DNA content, nuclear condensation/fragmentation, internucleosomal DNA fragmentation)","human Jurkat T cells; 30 μM, 4 h",apoptosis occurred
same,Increase in level of p21,[7],45 fold
same,Levels of p27,[7],slightly increased
same,Cleavage of PARP,[8],complete cleavage of PARP
same,Apoptosis by nuclear staining,[9],apoptotic morphology in all of the detached and most of the attached cells
same,Detached cells,[9],at least half
